Measured values reported in ChEMBL document CHEMBL5696442, “Discovery of type II inhibitors of TGFβ-activated kinase 1 (TAK1) and mitogen-activated protein kinase kinase kinase kinase 2 (MAP4K2)” (J Med Chem, 2015).

Tests used:
[1] = molecular target: Mitogen-activated protein kinase 10 (Homo sapiens, UniProt P53779); assay: Inhibition of JNK3 (unknown origin) Lys2 labeling site by KiNativ Profiling analysis
[2] = molecular target: T1, Mitogen-activated protein kinase kinase kinase 2 (Homo sapiens) (UniProt Q9Y2U5); assay: Inhibition of MAP3K2 Lys1 labeling site harbouring ELAVKQVQFDPDSPETSKEVNALECEIQLLK in human A-375 cells at 5 uM by KiNativ Profiling analysis relative to control; type: cell-based
T1 sequence (whole entry): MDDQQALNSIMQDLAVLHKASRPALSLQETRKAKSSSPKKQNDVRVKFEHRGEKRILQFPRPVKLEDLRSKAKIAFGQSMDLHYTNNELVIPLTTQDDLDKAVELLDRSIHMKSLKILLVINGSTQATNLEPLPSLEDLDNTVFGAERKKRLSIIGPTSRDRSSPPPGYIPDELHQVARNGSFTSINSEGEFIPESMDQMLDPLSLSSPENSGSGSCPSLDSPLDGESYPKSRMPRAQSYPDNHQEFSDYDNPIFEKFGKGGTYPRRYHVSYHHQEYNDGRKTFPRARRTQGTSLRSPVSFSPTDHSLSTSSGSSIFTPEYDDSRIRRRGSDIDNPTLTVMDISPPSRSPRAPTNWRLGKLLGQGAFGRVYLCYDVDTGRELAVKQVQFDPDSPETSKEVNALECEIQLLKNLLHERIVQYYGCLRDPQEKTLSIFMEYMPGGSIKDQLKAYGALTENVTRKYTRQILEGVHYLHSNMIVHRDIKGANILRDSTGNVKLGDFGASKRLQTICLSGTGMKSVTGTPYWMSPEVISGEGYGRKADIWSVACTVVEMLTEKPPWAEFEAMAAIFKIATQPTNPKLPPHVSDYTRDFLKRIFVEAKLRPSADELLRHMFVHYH

[3] = molecular target: T2, Mitogen-activated protein kinase kinase kinase 3 (Homo sapiens) (UniProt Q99759); assay: Inhibition of MAP3K3 Lys2 labeling site in human A-375 cells at 5 uM by KiNativ Profiling analysis relative to control; type: cell-based
T2 sequence (whole entry): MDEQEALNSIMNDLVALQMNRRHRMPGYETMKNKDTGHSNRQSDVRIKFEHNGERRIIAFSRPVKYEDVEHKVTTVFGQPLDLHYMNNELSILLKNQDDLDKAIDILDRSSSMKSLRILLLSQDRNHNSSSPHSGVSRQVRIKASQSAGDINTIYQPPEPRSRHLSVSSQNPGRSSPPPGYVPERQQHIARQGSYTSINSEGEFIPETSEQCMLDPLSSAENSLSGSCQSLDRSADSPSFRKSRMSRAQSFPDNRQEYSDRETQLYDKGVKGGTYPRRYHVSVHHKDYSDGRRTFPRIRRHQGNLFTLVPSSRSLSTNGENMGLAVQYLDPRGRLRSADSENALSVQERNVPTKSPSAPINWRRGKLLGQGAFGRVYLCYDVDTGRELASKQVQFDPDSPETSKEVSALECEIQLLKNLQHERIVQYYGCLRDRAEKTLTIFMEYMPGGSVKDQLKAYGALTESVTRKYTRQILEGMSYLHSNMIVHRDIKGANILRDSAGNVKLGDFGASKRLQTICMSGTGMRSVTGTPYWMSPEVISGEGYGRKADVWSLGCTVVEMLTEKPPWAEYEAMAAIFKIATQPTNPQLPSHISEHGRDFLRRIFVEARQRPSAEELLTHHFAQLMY

[4] = molecular target: T3, Phosphatidylinositol 5-phosphate 4-kinase type-2 alpha (Homo sapiens) (UniProt P48426); assay: Inhibition of PIP4K2A ATP labeling site in human A-375 cells at 5 uM by KiNativ Profiling analysis relative to control; type: cell-based
T3 sequence (whole entry): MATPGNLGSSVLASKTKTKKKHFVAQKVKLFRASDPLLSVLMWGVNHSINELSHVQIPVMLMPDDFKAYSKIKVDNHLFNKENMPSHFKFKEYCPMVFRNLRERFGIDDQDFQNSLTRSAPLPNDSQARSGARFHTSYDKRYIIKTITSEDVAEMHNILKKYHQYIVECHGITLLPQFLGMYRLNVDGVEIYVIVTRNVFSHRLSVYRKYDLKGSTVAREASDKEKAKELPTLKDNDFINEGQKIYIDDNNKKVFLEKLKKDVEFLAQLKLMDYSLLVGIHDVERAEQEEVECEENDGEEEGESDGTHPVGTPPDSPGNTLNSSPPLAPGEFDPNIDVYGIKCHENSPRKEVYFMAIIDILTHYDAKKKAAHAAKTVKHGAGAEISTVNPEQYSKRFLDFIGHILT

[5] = molecular target: T4, Serine/threonine-protein kinase TBK1 (Homo sapiens) (UniProt Q9UHD2); assay: Inhibition of TBK1 Lys1 labeling site in human A-375 cells at 5 uM by KiNativ Profiling analysis relative to control; type: cell-based
T4 sequence (whole entry): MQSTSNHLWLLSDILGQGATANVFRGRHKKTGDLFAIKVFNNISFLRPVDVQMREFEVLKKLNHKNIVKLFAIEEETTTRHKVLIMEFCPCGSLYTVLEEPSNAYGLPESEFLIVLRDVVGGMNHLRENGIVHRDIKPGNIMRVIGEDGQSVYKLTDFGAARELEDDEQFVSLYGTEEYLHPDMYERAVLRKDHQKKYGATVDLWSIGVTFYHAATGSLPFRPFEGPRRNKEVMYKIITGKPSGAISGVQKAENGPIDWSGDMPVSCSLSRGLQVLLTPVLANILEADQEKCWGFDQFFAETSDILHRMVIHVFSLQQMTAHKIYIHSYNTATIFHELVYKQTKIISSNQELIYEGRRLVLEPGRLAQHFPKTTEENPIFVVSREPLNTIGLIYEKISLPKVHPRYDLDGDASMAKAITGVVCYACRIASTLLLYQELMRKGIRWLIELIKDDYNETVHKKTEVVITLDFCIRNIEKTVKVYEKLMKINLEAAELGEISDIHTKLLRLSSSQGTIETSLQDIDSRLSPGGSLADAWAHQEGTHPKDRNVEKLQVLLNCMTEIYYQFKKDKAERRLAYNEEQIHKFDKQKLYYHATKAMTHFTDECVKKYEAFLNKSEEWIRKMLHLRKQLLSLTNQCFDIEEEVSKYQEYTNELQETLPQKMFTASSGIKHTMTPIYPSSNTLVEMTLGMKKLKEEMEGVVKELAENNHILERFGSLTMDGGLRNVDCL

[6] = molecular target: Glycogen synthase kinase-3 alpha (Homo sapiens) (UniProt P49840); assay: Inhibition of GSK3A Lys2 labeling site in human A-375 cells at 0.05 uM by KiNativ Profiling analysis relative to control; type: cell-based
Chain of Glycogen synthase kinase-3 alpha (Homo sapiens) (P49840 2-483 limits assumed): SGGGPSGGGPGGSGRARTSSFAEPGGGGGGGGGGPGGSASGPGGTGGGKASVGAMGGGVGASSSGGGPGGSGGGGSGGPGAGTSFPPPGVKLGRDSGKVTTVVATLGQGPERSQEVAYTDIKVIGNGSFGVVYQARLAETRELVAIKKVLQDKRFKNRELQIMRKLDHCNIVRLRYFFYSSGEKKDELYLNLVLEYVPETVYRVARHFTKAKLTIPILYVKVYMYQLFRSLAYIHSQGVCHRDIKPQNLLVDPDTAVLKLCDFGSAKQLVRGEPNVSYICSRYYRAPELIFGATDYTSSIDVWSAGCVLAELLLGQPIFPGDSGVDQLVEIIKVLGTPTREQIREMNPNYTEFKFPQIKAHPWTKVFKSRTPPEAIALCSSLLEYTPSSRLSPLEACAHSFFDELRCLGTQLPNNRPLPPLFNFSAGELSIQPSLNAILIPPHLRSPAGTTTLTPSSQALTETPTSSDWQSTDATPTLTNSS

[7] = molecular target: Serine/threonine-protein kinase 24 (Homo sapiens) (UniProt Q9Y6E0); assay: Inhibition of MST3 Lys2 labeling site harbouring DIKAANVLLSEHGEVK in human A-375 cells at 0.05 uM by KiNativ Profiling analysis relative to control; type: cell-based
Chain of Serine/threonine-protein kinase 24 (Homo sapiens) (Q9Y6E0 whole entry, looked up): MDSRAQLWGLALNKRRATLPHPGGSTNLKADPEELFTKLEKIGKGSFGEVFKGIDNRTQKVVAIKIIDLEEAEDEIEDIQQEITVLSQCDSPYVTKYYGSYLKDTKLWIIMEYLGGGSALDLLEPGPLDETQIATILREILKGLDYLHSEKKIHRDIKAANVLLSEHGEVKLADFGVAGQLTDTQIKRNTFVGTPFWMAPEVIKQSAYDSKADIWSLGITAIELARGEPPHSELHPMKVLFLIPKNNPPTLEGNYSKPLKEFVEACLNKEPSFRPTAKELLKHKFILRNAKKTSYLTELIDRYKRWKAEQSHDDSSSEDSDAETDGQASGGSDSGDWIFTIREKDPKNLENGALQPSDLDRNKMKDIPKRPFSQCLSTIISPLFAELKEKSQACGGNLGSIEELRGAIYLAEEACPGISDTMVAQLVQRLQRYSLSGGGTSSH

[8] = molecular target: Serine/threonine-protein kinase WNK1 (Homo sapiens) (UniProt Q9H4A3); assay: Inhibition of Wnk1 ATP Loop labeling site in human A-375 cells at 0.05 uM by KiNativ Profiling analysis relative to control; type: cell-based
Chain of Serine/threonine-protein kinase WNK1 (Homo sapiens) (Q9H4A3 whole entry, looked up): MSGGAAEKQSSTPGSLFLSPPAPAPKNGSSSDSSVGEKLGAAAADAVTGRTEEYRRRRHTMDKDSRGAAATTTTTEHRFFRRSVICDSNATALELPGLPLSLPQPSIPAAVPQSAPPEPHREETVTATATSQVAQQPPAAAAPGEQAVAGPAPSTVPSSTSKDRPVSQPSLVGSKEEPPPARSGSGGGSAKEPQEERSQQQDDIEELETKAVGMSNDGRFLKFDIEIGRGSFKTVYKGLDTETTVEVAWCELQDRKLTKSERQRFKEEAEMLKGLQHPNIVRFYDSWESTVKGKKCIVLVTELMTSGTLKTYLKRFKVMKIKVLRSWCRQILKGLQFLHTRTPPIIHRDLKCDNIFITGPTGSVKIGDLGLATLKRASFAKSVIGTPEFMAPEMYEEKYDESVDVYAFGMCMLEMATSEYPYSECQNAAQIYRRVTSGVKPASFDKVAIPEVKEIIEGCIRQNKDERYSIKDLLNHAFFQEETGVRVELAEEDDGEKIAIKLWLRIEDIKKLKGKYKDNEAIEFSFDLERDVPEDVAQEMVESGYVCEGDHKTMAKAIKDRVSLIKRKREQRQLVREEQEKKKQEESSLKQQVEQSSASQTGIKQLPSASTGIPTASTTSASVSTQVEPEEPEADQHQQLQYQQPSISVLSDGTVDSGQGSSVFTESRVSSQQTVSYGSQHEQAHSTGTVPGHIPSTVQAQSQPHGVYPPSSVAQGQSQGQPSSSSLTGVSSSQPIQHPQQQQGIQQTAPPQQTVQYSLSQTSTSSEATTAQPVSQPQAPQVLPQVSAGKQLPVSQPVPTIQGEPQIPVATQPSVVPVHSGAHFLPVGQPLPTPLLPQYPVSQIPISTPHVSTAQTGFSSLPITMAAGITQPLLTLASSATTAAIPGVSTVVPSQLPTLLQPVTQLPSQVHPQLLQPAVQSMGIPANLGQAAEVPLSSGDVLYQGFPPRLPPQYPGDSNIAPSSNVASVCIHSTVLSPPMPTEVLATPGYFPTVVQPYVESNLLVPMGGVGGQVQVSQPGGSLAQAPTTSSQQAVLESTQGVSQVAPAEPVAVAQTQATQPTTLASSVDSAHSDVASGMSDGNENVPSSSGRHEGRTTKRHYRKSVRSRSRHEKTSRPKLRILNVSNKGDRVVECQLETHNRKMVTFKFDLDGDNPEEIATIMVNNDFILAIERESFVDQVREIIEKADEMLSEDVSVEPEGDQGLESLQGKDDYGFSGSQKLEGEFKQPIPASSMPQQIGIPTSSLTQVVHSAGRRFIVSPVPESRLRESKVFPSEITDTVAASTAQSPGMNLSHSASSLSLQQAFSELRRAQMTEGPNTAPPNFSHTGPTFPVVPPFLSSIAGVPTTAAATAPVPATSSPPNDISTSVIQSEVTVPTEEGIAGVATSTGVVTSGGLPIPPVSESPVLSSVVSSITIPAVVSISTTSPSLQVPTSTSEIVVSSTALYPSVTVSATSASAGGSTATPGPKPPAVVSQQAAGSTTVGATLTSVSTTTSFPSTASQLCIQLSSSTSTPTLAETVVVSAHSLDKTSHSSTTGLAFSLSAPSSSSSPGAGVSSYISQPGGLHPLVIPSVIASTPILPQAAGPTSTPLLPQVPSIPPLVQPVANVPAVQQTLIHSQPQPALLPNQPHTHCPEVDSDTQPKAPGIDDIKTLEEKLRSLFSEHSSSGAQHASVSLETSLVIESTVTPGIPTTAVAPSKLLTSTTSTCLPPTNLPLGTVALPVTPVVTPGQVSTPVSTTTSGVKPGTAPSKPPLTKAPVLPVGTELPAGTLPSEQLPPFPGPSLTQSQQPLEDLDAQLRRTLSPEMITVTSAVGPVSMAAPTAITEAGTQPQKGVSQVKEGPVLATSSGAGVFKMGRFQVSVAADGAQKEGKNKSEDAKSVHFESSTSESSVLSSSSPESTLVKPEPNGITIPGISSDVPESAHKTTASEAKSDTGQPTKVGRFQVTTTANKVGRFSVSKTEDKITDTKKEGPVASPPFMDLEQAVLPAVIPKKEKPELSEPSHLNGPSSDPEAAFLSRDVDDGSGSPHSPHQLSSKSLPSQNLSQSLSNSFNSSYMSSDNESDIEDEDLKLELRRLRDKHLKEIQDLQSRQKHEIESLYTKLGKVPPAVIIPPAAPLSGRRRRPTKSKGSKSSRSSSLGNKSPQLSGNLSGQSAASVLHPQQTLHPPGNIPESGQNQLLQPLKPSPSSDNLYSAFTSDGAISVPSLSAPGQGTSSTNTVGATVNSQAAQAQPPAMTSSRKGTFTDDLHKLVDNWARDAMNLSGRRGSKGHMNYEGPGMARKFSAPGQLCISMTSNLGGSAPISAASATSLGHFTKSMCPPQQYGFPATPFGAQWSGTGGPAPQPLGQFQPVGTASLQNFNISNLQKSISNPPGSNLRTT

Chain of Mitogen-activated protein kinase 10 (P53779 whole entry): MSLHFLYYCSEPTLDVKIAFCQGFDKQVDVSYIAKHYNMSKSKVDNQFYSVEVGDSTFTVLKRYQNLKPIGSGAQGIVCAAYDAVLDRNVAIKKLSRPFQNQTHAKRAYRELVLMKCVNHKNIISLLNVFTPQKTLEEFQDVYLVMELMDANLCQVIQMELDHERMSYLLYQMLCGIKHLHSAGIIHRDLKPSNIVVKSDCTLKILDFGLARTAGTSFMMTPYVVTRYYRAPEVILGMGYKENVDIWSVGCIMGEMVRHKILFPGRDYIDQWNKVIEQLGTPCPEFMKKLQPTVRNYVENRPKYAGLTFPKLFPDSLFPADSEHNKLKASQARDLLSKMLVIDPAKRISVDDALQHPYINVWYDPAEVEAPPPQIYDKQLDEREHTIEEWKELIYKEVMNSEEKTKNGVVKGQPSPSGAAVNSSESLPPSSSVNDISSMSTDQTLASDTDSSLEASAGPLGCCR

SMILES	IC50 [1] [µM]	inhibition [2] [%]	inhibition [3] [%]	inhibition [4] [%]	inhibition [5] [%]	inhibition [6] [%]	inhibition [7] [%]	inhibition [8] [%]
CCN1CCN(Cc2ccc(NC(=O)c3ccc(C)c(/C=C/c4cnc5[nH]ccc5c4OC)c3)cc2C(F)(F)F)CC1	> 10	60.6	11.8	4.7	42.7	14.4	3.2	5
CCN1CCN(Cc2ccc(NC(=O)c3ccc(C)c(Oc4ccnc5[nH]ccc45)c3)cc2C(F)(F)F)CC1	> 10	44.4	-4.8	0.9	13.2	0.3	-2.7	2.4
